Test results published in patent US8802597B2, “Herbicidal pyrimidines” (E I du Pont de Nemours and Company, priority 2003, dated 2014).

Experiments:
[1] = system: Italian ryegrass (Lolium multiflorum); assay: Test C postemergence; type: in vivo; conditions: for Plant response rating, Ryegrass, Italian: scale 0 to 100
Procedure, shortened: (§1)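 Injury scored visually 12–14 days after application on 0–100 scale (100 = complete control), relative to controls. Compounds, formulated with surfactant in non-phytotoxic solvent, applied to soil at planting (pre) or to 1- to 4-leaf plants 2–18 cm tall (post) in greenhouse.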

[2] = system: blackgrass (Alopecurus myosuroides); assay: Test C postemergence; type: in vivo; conditions: for Plant response rating, Blackgrass: scale 0 to 100
Procedure, shortened: as §1

[3] = system: canarygrass (Phalaris minor); assay: Test C postemergence; type: in vivo; conditions: for Plant response rating, Canarygrass: scale 0 to 100
Procedure, shortened: as §1

[4] = system: downy brome (Bromus tectorum); assay: Test C postemergence; type: in vivo; conditions: for Plant response rating, Bromegrass, Downy: scale 0 to 100
Procedure, shortened: as §1

[5] = system: green foxtail (Setaria viridis); assay: Test C postemergence; type: in vivo; conditions: for Plant response rating, Foxtail, Green: scale 0 to 100
Procedure, shortened: as §1

[6] = system: wheat (Triticum aestivum); assay: Test C postemergence; type: in vivo; conditions: for Plant response rating, Wheat: scale 0 to 100
Procedure, shortened: as §1

wild oat (Avena fatua) = assay: Test C postemergence; type: in vivo; conditions: for Plant response rating, Oat, Wild: scale 0 to 100
Procedure, shortened: as §1

[7] = system: windgrass (Apera spica-venti); assay: Test C postemergence; type: in vivo; conditions: for Plant response rating, Windgrass: scale 0 to 100
Procedure, shortened: as §1

[8] = system: winter barley (Hordeum vulgare); assay: Test C postemergence; type: in vivo; conditions: for Plant response rating, Barley: scale 0 to 100
Procedure, shortened: as §1

[9] = system: barnyardgrass (Echinochloa crus-galli); assay: Test C flooded paddy test; type: in vivo; conditions: Flood
Procedure, shortened: (§2)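 Flooded paddy test: rice, umbrella sedge, duck salad and barnyardgrass grown to 2-leaf stage before treatment with formulated test chemicals. Plants kept in greenhouse 12 to 14 days, then visually rated against controls on 0–100 scale (0 no effect, 100 complete control).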

[10] = system: duck salad (Heteranthera limosa); assay: Test C flooded paddy test; type: in vivo; conditions: Flood, scale 0 to 100
Procedure, shortened: as §2

rice (Oryza sativa) = assay: Test C flooded paddy test; type: in vivo; conditions: Flood, scale 0 to 100
Procedure, shortened: as §2

Q: Which results are given for `CCOC(=O)c1nc(C2CC2)nc(N)c1Cl` [Compound 4, ethyl 6-amino-5-chloro-2-cyclopropyl-4-pyrimidinecarboxylate]?
A: Plant response rating, Ryegrass, Italian ([1]; 250 g ai/ha): 65; Plant response rating, Ryegrass, Italian ([1]; 500 g ai/ha): 65; pest or weed control at 62 g/ha ([1]; Lolium multiflorum, post-emergence, 62 g ai/ha, scale 0 to 100 (0 no effect, 100 complete control), read-out: Ryegrass, Italian plant response rating): 45%; pest or weed control at 125 g/ha ([1]; Lolium multiflorum, post-emergence, 125 g ai/ha, scale 0 to 100 (0 no effect, 100 complete control), read-out: Ryegrass, Italian plant response rating): 60%; Plant response rating, Blackgrass ([2]; 125 g ai/ha): 65; Plant response rating, Blackgrass ([2]; 250 g ai/ha): 70; Plant response rating, Blackgrass ([2]; 500 g ai/ha): 70; pest or weed control at 62 g/ha ([2]; Alopecurus myosuroides, post-emergence, 62 g ai/ha, scale 0 to 100 (0 no effect, 100 complete control), read-out: Blackgrass plant response rating): 65%; Plant response rating, Canarygrass ([3]; 125 g ai/ha): 45; Plant response rating, Canarygrass ([3]; 250 g ai/ha): 60; Plant response rating, Canarygrass ([3]; 500 g ai/ha): 60; pest or weed control at 62 g/ha ([3]; Phalaris minor, post-emergence, 62 g ai/ha, scale 0 to 100 (0 no effect, 100 complete control), read-out: Canarygrass plant response rating): 35%; Plant response rating, Bromegrass, Downy ([4]; 125 g ai/ha): 60; Plant response rating, Bromegrass, Downy ([4]; 250 g ai/ha): 65; Plant response rating, Bromegrass, Downy ([4]; 500 g ai/ha): 70; pest or weed control at 62 g/ha ([4]; Bromus tectorum, post-emergence, 62 g ai/ha, scale 0 to 100 (0 no effect, 100 complete control), read-out: Bromegrass, Downy plant response rating): 45%; Plant response rating, Foxtail, Green ([5]; 250 g ai/ha): 70; Plant response rating, Foxtail, Green ([5]; 500 g ai/ha): 75; pest or weed control at 62 g/ha ([5]; Setaria viridis, post-emergence, 62 g ai/ha, scale 0 to 100 (0 no effect, 100 complete control), read-out: Foxtail, Green plant response rating): 65%; pest or weed control at 125 g/ha ([5]; Setaria viridis, post-emergence, 125 g ai/ha, scale 0 to 100 (0 no effect, 100 complete control), read-out: Foxtail, Green plant response rating): 70%; Plant response rating, Wheat ([6]; 250 g ai/ha): 65; Plant response rating, Wheat ([6]; 500 g ai/ha): 65; plant injury at 62 g/ha ([6]; Triticum aestivum, post-emergence, 62 g ai/ha, scale 0 to 100 (0 no effect, 100 complete control), read-out: Wheat plant response rating): 50%; plant injury at 125 g/ha ([6]; Triticum aestivum, post-emergence, 125 g ai/ha, scale 0 to 100 (0 no effect, 100 complete control), read-out: Wheat plant response rating): 60%; Plant response rating, Oat, Wild (wild oat (Avena fatua); 250 g ai/ha): 70; Plant response rating, Oat, Wild (wild oat (Avena fatua); 500 g ai/ha): 70; pest or weed control at 62 g/ha (wild oat (Avena fatua); Avena fatua, post-emergence, 62 g ai/ha, scale 0 to 100 (0 no effect, 100 complete control), read-out: Oat, Wild plant response rating): 60%; pest or weed control at 125 g/ha (wild oat (Avena fatua); Avena fatua, post-emergence, 125 g ai/ha, scale 0 to 100 (0 no effect, 100 complete control), read-out: Oat, Wild plant response rating): 65%; Plant response rating, Windgrass ([7]; 250 g ai/ha): 70; Plant response rating, Windgrass ([7]; 500 g ai/ha): 75; pest or weed control at 62 g/ha ([7]; Apera spica-venti, post-emergence, 62 g ai/ha, scale 0 to 100 (0 no effect, 100 complete control), read-out: Windgrass plant response rating): 60%; pest or weed control at 125 g/ha ([7]; Apera spica-venti, post-emergence, 125 g ai/ha, scale 0 to 100 (0 no effect, 100 complete control), read-out: Windgrass plant response rating): 65%; Plant response rating, Barley ([8]; 125 g ai/ha): 65; Plant response rating, Barley ([8]; 250 g ai/ha): 65; Plant response rating, Barley ([8]; 500 g ai/ha): 65; plant injury at 62 g/ha ([8]; Hordeum vulgare, post-emergence, 62 g ai/ha, scale 0 to 100 (0 no effect, 100 complete control), read-out: Barley plant response rating): 30%; Plant response rating, Barnyardgrass ([9]; 62 g ai/ha, scale 0 to 100): 0; Plant response rating, Barnyardgrass ([9]; 125 g ai/ha, scale 0 to 100): 60; Plant response rating, Barnyardgrass ([9]; 250 g ai/ha, scale 0 to 100): 65; Plant response rating, Barnyardgrass ([9]; 500 g ai/ha, scale 0 to 100 (0 no effect, 100 complete control)): 85; Plant response rating, Ducksalad ([10]; 62 g ai/ha): 70; Plant response rating, Ducksalad ([10]; 125 g ai/ha): 80; Plant response rating, Ducksalad ([10]; 250 g ai/ha): 90; Plant response rating, Ducksalad ([10]; 500 g ai/ha): 100; Plant response rating, Rice (rice (Oryza sativa); 62 g ai/ha): 0; Plant response rating, Rice (rice (Oryza sativa); 125 g ai/ha): 40; Plant response rating, Rice (rice (Oryza sativa); 250 g ai/ha): 75; Plant response rating, Rice (rice (Oryza sativa); 500 g ai/ha): 80; melting point: 87 to 89 °C
